Test results as given in the supplement of paper PMC11061612.

Key:
[1] = compound: CN(C)CCCOc1ccc(-c2ccc3ncc4c(c3c2)n(C2CCOCC2)c(=O)n4C)cn1 [AZD0156]; conditions: max 3 µM
How it was run: (§1)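 Cancer cell lines were seeded into 1536-well plates in 7.5 μl medium (DMEM/F12 or RPMI, 10% FBS), held 24 hours at 37°C and 5% CO2, and dosed for 72 hours with final DMSO typically 0.2%. Luminescence from CellTiter-Glo 2.0, scaled between blank-well and DMSO-well means, served as viability. The single-agent IC50 was obtained from dose-response fits with a non-linear mixed effects model, each fit being a two-parameter logistic curve.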

[2] = compound: C[C@@H](c1ccc2nccn2c1)n1nnc2ncc(-c3cnn(C)c3)nc21 [Savolitinib]; conditions: max 1 µM
How it was run: as §1

[3] = compound: Cc1cc2ncnn2cc1Nc1ncc2c(n1)n(C1CCOCC1)c(=O)n2C [AZD7648]; conditions: max 10 µM
How it was run: as §1

[4] = compound: CC(=O)Nc1cccc(-n2c(=O)n(C3CC3)c(=O)c3c(Nc4ccc(I)cc4F)n(C)c(=O)c(C)c32)c1 [Trametinib]; conditions: max 1 µM
How it was run: as §1

[5] = compound: Cc1c2c(nn1C)CSCc1cc(n(C)n1)CSc1cc(c3ccccc3c1)OCCCc1c(C(=O)O)n(C)c3c-2c(Cl)ccc13 [AZD5991]; conditions: max 1 µM
How it was run: as §1

[6] = compound: COc1cc(Nc2ncc3c(n2)-c2ccc(Cl)cc2C(c2c(F)cccc2OC)=NC3)ccc1C(=O)O [Alisertib]; conditions: max 10 µM
How it was run: as §1

[7] = compound: CC1(C)CCC(CN2CCN(c3ccc(C(=O)NS(=O)(=O)c4ccc(NCC5CCOCC5)c([N+](=O)[O-])c4)c(Oc4cnc5[nH]ccc5c4)c3)CC2)=C(c2ccc(Cl)cc2)C1 [Venetoclax]; conditions: max 1 µM
How it was run: as §1

[8] = compound: C1CN(CCC1(C(=O)N[C@@H](CCO)C2=CC=C(C=C2)Cl)N)C3=NC=NC4=C3C=CN4 [Capivasertib]; conditions: max 10 µM
How it was run: as §1

[9] = compound: Cn1cnc2c(F)c(Nc3ccc(Br)cc3Cl)c(C(=O)NOCCO)cc21 [Selumetinib]; conditions: max 10 µM
How it was run: as §1

[10] = compound: Cc1nc(-c2cn3c(n2)-c2ccc(-c4cnn(C(C)(C)C(N)=O)c4)cc2OCC3)n(C(C)C)n1 [Taselisib]; conditions: max 10 µM
How it was run: as §1

[11] = compound: C[C@@H]1COCCN1C2=NC(=NC(=C2)C3(CC3)[S@](=N)(=O)C)C4=C5C=CNC5=NC=C4 [AZD6738]; conditions: max 10 µM
How it was run: as §1

[12] = compound: CCc1c2c(nc3ccc(O)cc13)-c1cc3c(c(=O)n1C2)COC(=O)[C@]3(O)CC [SN-38]; conditions: max 0.3 µM
How it was run: as §1

[13] = compound: CC(=O)c1c(C)c2cnc(Nc3ccc(N4CCNCC4)cn3)nc2n(C2CCCC2)c1=O [Palbociclib]; conditions: max 10 µM
How it was run: as §1

[14] = compound: COc1cccc(OCCCN)c1-c1cc(Nc2cnc(C#N)cn2)n[nH]1 [Prexasertib]; conditions: max 1 µM
How it was run: as §1

[15] = compound: CC1=C(C(=CC=C1)Cl)NC(=O)C2=CN=C(S2)NC3=CC(=NC(=N3)C)N4CCN(CC4)CCO [Dasatinib]; conditions: max 2 µM
How it was run: as §1

[16] = compound: CN(CC[C@H](CSC1=CC=CC=C1)NC2=C(C=C(C=C2)S(=O)(=O)NC(=O)C3=CC=C(C=C3)N4CCC(CC4)[C@H](C5=CC=CC=C5C6=CC=C(C=C6)Cl)O)S(=O)(=O)C(F)(F)F)CCO [AZD4320]; conditions: max 1 µM
How it was run: as §1

[17] = compound: C[C@@H](Nc1cc(F)cc(F)c1)c1cc(C(=O)N(C)C)cc2c(=O)cc(N3CCOCC3)oc12 [AZD8186]; conditions: max 3 µM
How it was run: as §1

[18] = compound: CCN(CCO)CCCOc1ccc2c(Nc3cc(CC(=O)Nc4cccc(F)c4)[nH]n3)ncnc2c1 [AZD2811]; conditions: max 1 µM
How it was run: as §1

[19] = compound: C[C@@H](Oc1cc(-c2cnn(C3CCNCC3)c2)cnc1N)c1c(Cl)ccc(F)c1Cl [Crizotinib]; conditions: max 10 µM
How it was run: as §1

[20] = compound: COc1nnc2ccc(N3CCC(c4ccc(OCCN5CCN(C)C(=O)[C@H]5C)cc4)CC3)nn12 [AZD5153]; conditions: max 1 µM
How it was run: as §1

[21] = compound: CS(=O)(=O)CCNCc1ccc(-c2ccc3ncnc(Nc4ccc(OCc5cccc(F)c5)c(Cl)c4)c3c2)o1 [Lapatinib]; conditions: max 10 µM
How it was run: as §1

[22] = compound: CC(C)n1c(=O)n(C)c2cnc3cc(F)c(-c4ccc(OCCCN5CCCCC5)nc4)cc3c21 [AZD1390]; conditions: max 0.3 µM
How it was run: as §1

[23] = compound: CC1=CN2[C@@H](C1)C=NC3=CC(=C(C=C3C2=O)OC)OCCCCCOC4=C(C=C5C(=C4)N=C[C@@H]6CC(=CN6C5=O)C)OC [SG3199]; conditions: max 0.001 µM
How it was run: as §1

[24] = compound: C=CCn1c(=O)c2cnc(Nc3ccc(N4CCN(C)CC4)cc3)nc2n1-c1cccc(C(C)(C)O)n1 [AZD1775]; conditions: max 3 µM
How it was run: as §1

[25] = compound: COc1cccc2c1C(=O)c1c(O)c3c(c(O)c1C2=O)C[C@@](O)(C(=O)CO)C[C@@H]3O[C@H]1C[C@H](N)[C@H](O)[C@H](C)O1 [Doxorubicin]; conditions: max 1 µM
How it was run: as §1

[26] = compound: COc1cc2ncnc(Nc3ccc(F)c(Cl)c3)c2cc1OCCCN1CCOCC1 [Gefitinib]; conditions: max 10 µM
How it was run: as §1

[27] = compound: O=C(c1cc(Cc2n[nH]c(=O)c3ccccc23)ccc1F)N1CCN(C(=O)C2CC2)CC1 [Olaparib]; conditions: max 10 µM
How it was run: as §1

| Cell Line | IC50, cell viability 72 h [1] [µM] | IC50, cell viability 72 h [2] [µM] | IC50, cell viability 72 h [3] [µM] | IC50, cell viability 72 h [4] [µM] | IC50, cell viability 72 h [5] [µM] | IC50, cell viability 72 h [6] [µM] | IC50, cell viability 72 h [7] [µM] | IC50, cell viability 72 h [8] [µM] | IC50, cell viability 72 h [9] [µM] | IC50, cell viability 72 h [10] [µM] | IC50, cell viability 72 h [11] [µM] | IC50, cell viability 72 h [12] [µM] | IC50, cell viability 72 h [13] [µM] | IC50, cell viability 72 h [14] [µM] | IC50, cell viability 72 h [15] [µM] | IC50, cell viability 72 h [16] [µM] | IC50, cell viability 72 h [17] [µM] | IC50, cell viability 72 h [18] [µM] | IC50, cell viability 72 h [19] [µM] | IC50, cell viability 72 h [20] [µM] | IC50, cell viability 72 h [21] [µM] | IC50, cell viability 72 h [22] [µM] | IC50, cell viability 72 h [23] [µM] | IC50, cell viability 72 h [24] [µM] | IC50, cell viability 72 h [25] [µM] | IC50, cell viability 72 h [26] [µM] | IC50, cell viability 72 h [27] [µM] |
| --- | --- | --- | --- | --- | --- | --- | --- | --- | --- | --- | --- | --- | --- | --- | --- | --- | --- | --- | --- | --- | --- | --- | --- | --- | --- | --- | --- |
| Daudi (Burkitt's Lymphoma) | > 3 | > 1 | > 10 | > 1 | > 1 | 0.884 | > 1 | > 10 | > 10 | 8.26 | 3.88 | 0.00852 | > 10 | 0.0292 | 0.627 | > 1 | > 3 | > 1 | 5.56 | 0.243 | > 10 | > 0.3 | > 0.001 | 1.02 | 0.173 | > 10 | > 10 |
| GRANTA-519 (B-Cell Non-Hodgkin's Lymphoma) | > 3 | > 1 | > 10 | > 1 | > 1 | > 10 | > 1 | > 10 | > 10 | > 10 | 1.95 | 0.00406 | > 10 | 0.0174 | > 2 | – | > 3 | > 1 | > 10 | > 1 | > 10 | > 0.3 | > 0.001 | 0.55 | 0.869 | > 10 | > 10 |
| HT-3 (Cervical Carcinoma) | > 3 | > 1 | > 10 | > 1 | > 1 | > 10 | > 1 | > 10 | > 10 | > 10 | > 10 | 0.00856 | > 10 | > 1 | > 2 | > 1 | > 3 | > 1 | > 10 | > 1 | > 10 | > 0.3 | > 0.001 | 2.34 | 0.732 | > 10 | > 10 |
| HT-144 (Melanoma) | > 3 | > 1 | > 10 | 0.0179 | 0.221 | > 10 | > 1 | 5.45 | 0.632 | 5.01 | 3.48 | 0.0681 | > 10 | 0.139 | > 2 | > 1 | > 3 | > 1 | 4.71 | 0.981 | 8.83 | > 0.3 | > 0.001 | 0.25 | > 1 | > 10 | > 10 |
